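The compound was tested at five concentrations on cells cultured in 96-well plates, with a 48-hour exposure period. GI50: concentration for 50% inhibition of growth. TGI: total growth inhibition.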
Key:
Assay in all cases: DTP human tumour cell line panel, 48 h
[1] = tested on: NCI-H522 lung
[2] = tested on: SK-OV-3 ovarian
[3] = tested on: SN12C renal
[4] = tested on: MALME-3M melanoma
[5] = tested on: RXF 393 renal
[6] = tested on: SW-620 colon
[7] = tested on: NCI-H23 lung
[8] = tested on: HOP-62 NSCLC
[9] = tested on: SF-539 CNS
[10] = tested on: RPMI-8226 leukemia
[11] = tested on: UACC-62 melanoma
[12] = tested on: U251 CNS
[13] = tested on: HOP-92 NSCLC
[14] = tested on: MDA-MB-231 breast
[15] = tested on: DU-145 prostate
[16] = tested on: NCI/ADR-RES ovarian
[17] = tested on: BT-549 breast
[18] = tested on: UO-31 renal
[19] = tested on: OVCAR-5 ovarian
[20] = tested on: M14 melanoma
[21] = tested on: IGROV1 ovarian
[22] = tested on: A549 NSCLC
[23] = tested on: MDA-MB-435
[24] = tested on: HCT-116 colon
[25] = tested on: A498 renal
[26] = tested on: TK-10 renal
[27] = tested on: OVCAR-8 ovarian
[28] = tested on: SF-295 CNS
[29] = tested on: OVCAR-4 ovarian
[30] = tested on: HCC-2998 colon
[31] = tested on: CAKI-1 renal
[32] = tested on: KM12 colon
[33] = tested on: K-562 leukemia
[34] = tested on: T-47D breast
[35] = tested on: LOX IMVI melanoma
[36] = tested on: HCT-15 colon
[37] = tested on: MOLT-4 leukemia
[38] = tested on: HL-60(TB) leukemia
[39] = tested on: MCF7 breast
[40] = tested on: ACHN renal
[41] = tested on: SK-MEL-5 melanoma
[42] = tested on: PC-3 prostate
[43] = tested on: 786-0 renal
[44] = tested on: CCRF-CEM leukemia
[45] = tested on: SR leukemia
[46] = tested on: HT29 colon
[47] = tested on: EKVX NSCLC
[48] = tested on: NCI-H460 lung
[49] = tested on: SF-268 CNS
[50] = tested on: UACC-257 melanoma
[51] = tested on: SNB-75 CNS
[52] = tested on: OVCAR-3 ovarian
[53] = tested on: NCI-H226 lung
[54] = tested on: SK-MEL-2 melanoma
[55] = tested on: SK-MEL-28 melanoma
[56] = tested on: SNB-19 CNS
[57] = tested on: COLO 205 colon
[58] = tested on: HS 578T breast

C[C@]12CCC3c4ccc(O)cc4CCC3C1CC[C@@]2(O)C#Cc1ccc(C#C/C=C\C#Cc2ccccc2N)cc1 (stereo not given in full)
GI50 [1]: 17 µM
TGI [1]: > 100 µM
GI50 [2]: 39.7 µM
TGI [2]: > 100 µM
GI50 [3]: 21.7 µM
TGI [3]: 61.1 µM
GI50 [4]: 17.2 µM
TGI [4]: 48.1 µM
GI50 [5]: 36.3 µM
TGI [5]: > 100 µM
GI50 [6]: 40 µM
TGI [6]: > 100 µM
GI50 [7]: 26.5 µM
TGI [7]: > 100 µM
GI50 [8]: 28.7 µM
TGI [8]: 70 µM
GI50 [9]: 21.3 µM
TGI [9]: 52.6 µM
GI50 [10]: 7.56 µM
TGI [10]: 79.7 µM
GI50 [11]: 15.2 µM
TGI [11]: 41.2 µM
GI50 [12]: 19 µM
TGI [12]: 80.4 µM
GI50 [13]: 16 µM
TGI [13]: 46.5 µM
GI50 [14]: 21 µM
TGI [14]: 53.5 µM
GI50 [15]: 23.9 µM
TGI [15]: > 100 µM
GI50 [16]: 17.7 µM
TGI [16]: 52.2 µM
GI50 [17]: 19.2 µM
TGI [17]: 45.1 µM
GI50 [18]: 15.9 µM
TGI [18]: 85.1 µM
GI50 [19]: 38.4 µM
TGI [19]: > 100 µM
GI50 [20]: 29.5 µM
TGI [20]: > 100 µM
GI50 [21]: 87.1 µM
TGI [21]: > 100 µM
GI50 [22]: 32.9 µM
TGI [22]: > 100 µM
GI50 [23]: 31.7 µM
TGI [23]: > 100 µM
GI50 [24]: 12.3 µM
TGI [24]: > 100 µM
GI50 [25]: 21.7 µM
TGI [25]: 41 µM
GI50 [26]: 36.6 µM
TGI [26]: > 100 µM
GI50 [27]: 47.4 µM
TGI [27]: > 100 µM
GI50 [28]: 17.1 µM
TGI [28]: > 100 µM
GI50 [29]: 23.6 µM
TGI [29]: > 100 µM
GI50 [30]: 25.6 µM
TGI [30]: 54.5 µM
GI50 [31]: 20.6 µM
TGI [31]: 68.6 µM
GI50 [32]: 9.66 µM
TGI [32]: > 100 µM
GI50 [33]: 12.4 µM
TGI [33]: 86.5 µM
GI50 [34]: > 100 µM
TGI [34]: > 100 µM
GI50 [35]: 35.8 µM
TGI [35]: > 100 µM
GI50 [36]: 22.2 µM
TGI [36]: > 100 µM
GI50 [37]: 57.5 µM
TGI [37]: > 100 µM
GI50 [38]: 26.7 µM
TGI [38]: > 100 µM
GI50 [39]: 0.308 µM
TGI [39]: > 100 µM
GI50 [40]: 17.8 µM
TGI [40]: 43.6 µM
GI50 [41]: 17.9 µM
TGI [41]: 41 µM
GI50 [42]: 15.6 µM
TGI [42]: 55.3 µM
GI50 [43]: 20.5 µM
TGI [43]: 57.5 µM
GI50 [44]: > 100 µM
TGI [44]: > 100 µM
GI50 [45]: > 100 µM
TGI [45]: > 100 µM
GI50 [46]: 25.8 µM
TGI [46]: > 100 µM
GI50 [47]: 20.3 µM
TGI [47]: 65.5 µM
GI50 [48]: 12.6 µM
TGI [48]: > 100 µM
GI50 [49]: 24.8 µM
TGI [49]: > 100 µM
GI50 [50]: 28.7 µM
TGI [50]: > 100 µM
GI50 [51]: > 100 µM
TGI [51]: > 100 µM
GI50 [52]: 13.8 µM
TGI [52]: 48 µM
GI50 [53]: 20.2 µM
TGI [53]: 48.2 µM
GI50 [54]: 42.2 µM
TGI [54]: > 100 µM

O=C1OCC2=C1C(c1cccc(Cl)c1)c1cc3c(cc1N2CCO)OCO3 (stereo not given)
GI50 [1]: 0.228 µM
TGI [1]: 16.2 µM
GI50 [2]: 0.412 µM
TGI [2]: 10.5 µM
GI50 [3]: 0.817 µM
TGI [3]: > 63.7 µM
GI50 [5]: 0.278 µM
GI50 [6]: 0.358 µM
TGI [6]: > 100 µM
GI50 [7]: 0.502 µM
TGI [7]: > 100 µM
GI50 [8]: 0.481 µM
TGI [8]: 57.7 µM
GI50 [55]: 0.755 µM
TGI [55]: > 100 µM
GI50 [9]: 0.303 µM
GI50 [10]: 0.535 µM
TGI [10]: 35.8 µM
GI50 [11]: 0.36 µM
TGI [11]: > 44.6 µM
GI50 [12]: 0.383 µM
TGI [12]: 17.7 µM
GI50 [14]: 1.66 µM
TGI [14]: 14.4 µM
GI50 [15]: 0.512 µM
TGI [15]: 16.9 µM
GI50 [16]: 0.301 µM
TGI [16]: > 41 µM
GI50 [17]: 0.603 µM
GI50 [18]: 0.465 µM
TGI [18]: > 65.4 µM
GI50 [56]: 0.784 µM
TGI [56]: > 100 µM
GI50 [19]: 1.26 µM
TGI [19]: > 100 µM
GI50 [20]: 0.36 µM
TGI [20]: > 22.5 µM
GI50 [57]: 0.36 µM
TGI [57]: 1.38 µM
GI50 [21]: 2.79 µM
TGI [21]: > 74.4 µM
GI50 [22]: 0.498 µM
TGI [22]: 33.5 µM
GI50 [23]: 0.0383 µM
TGI [23]: 0.233 µM
GI50 [24]: 0.466 µM
TGI [24]: > 36.3 µM
GI50 [25]: 0.23 µM
TGI [25]: 2.55 µM
GI50 [26]: 17.7 µM
TGI [26]: > 100 µM
GI50 [27]: 0.503 µM
TGI [27]: > 65.8 µM
GI50 [28]: 0.26 µM
TGI [28]: 22.4 µM
GI50 [29]: 0.696 µM
TGI [29]: > 100 µM
GI50 [30]: 1.07 µM
TGI [30]: 14.3 µM
GI50 [31]: 0.216 µM
TGI [31]: 22.6 µM
GI50 [32]: 0.398 µM
TGI [32]: 29.6 µM
GI50 [33]: 0.354 µM
TGI [33]: > 100 µM
GI50 [35]: 0.6 µM
TGI [35]: 27 µM
GI50 [36]: 0.428 µM
TGI [36]: > 100 µM
GI50 [37]: 1.14 µM
TGI [37]: 97.8 µM
GI50 [38]: 0.328 µM
TGI [38]: 3.7 µM
GI50 [39]: 0.313 µM
TGI [39]: > 100 µM
GI50 [40]: 0.785 µM
TGI [40]: > 100 µM
GI50 [41]: 0.256 µM
TGI [41]: 12.5 µM
GI50 [42]: 0.381 µM
TGI [42]: > 43.7 µM
GI50 [43]: 0.558 µM
TGI [43]: > 41.8 µM
GI50 [44]: 0.527 µM
TGI [44]: > 100 µM
GI50 [45]: 0.359 µM
TGI [45]: 70.4 µM
GI50 [46]: 0.364 µM
TGI [46]: 4.73 µM
GI50 [58]: 0.445 µM
TGI [58]: > 58.2 µM
GI50 [47]: 2.59 µM
TGI [47]: > 87.2 µM
GI50 [48]: 0.414 µM
TGI [48]: > 35.3 µM
GI50 [49]: 0.7 µM
TGI [49]: 34.6 µM
GI50 [50]: 0.256 µM
TGI [50]: > 44.5 µM
GI50 [51]: 0.281 µM
TGI [51]: > 100 µM
GI50 [52]: 0.27 µM
TGI [52]: 0.811 µM
GI50 [53]: 0.753 µM
TGI [53]: 20 µM
GI50 [54]: 2.44 µM
TGI [54]: > 44.3 µM

Source: PubChem BioAssay (NCI)
